Data set [1] has as its system glutamate racemase isozyme 2 from Bacillus anthracis (RacE2). As to the kind of experiment: biochemical. In kind it is biochemical. The note with it: FIG. 14, competitive inhibition model.
The target of data set [2] is T1, glutamate racemase from H. pylori (Helicobacter pylori, UniProt P56068).
T1 sequence (P56068 1-255): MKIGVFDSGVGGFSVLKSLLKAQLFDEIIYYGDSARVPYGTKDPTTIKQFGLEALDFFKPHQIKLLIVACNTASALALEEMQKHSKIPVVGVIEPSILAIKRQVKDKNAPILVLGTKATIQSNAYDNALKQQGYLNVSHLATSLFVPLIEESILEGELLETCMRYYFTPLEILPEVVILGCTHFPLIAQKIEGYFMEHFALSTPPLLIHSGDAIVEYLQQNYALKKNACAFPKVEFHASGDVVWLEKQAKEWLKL
In kind it is biochemical.

For data set [3], the target named is T2, glutamate racemase (GR) from B. subtilis (Bacillus subtilis, UniProt P94556). The following applies: for Ki: read-out: Ki value.
In the next data set the test system is B. subtilis. As to the kind of experiment: Cell wall lysis assay (modified CytoTox-Glo, luminescence).
In another data set the test system is S. aureus. The data set is described as above.
The test system of a further data set is B. subtilis DB104. As to the kind of experiment: Inhibition of bacterial growth (MIC50, absorbance at 600 nm, 24 h).
The next data set concerns E. coli Acella. The description is as above. The note with it: for growth inhibition: concentrations <3 mg mL^−1.
In another data set the test system is S. aureus ATCC 12600. Described as above. The note with it: for growth inhibition: concentrations <3 mg mL^−1.
The target of data set [4] is T3, glutamate racemase isozyme 2 from Bacillus anthracis (RacE2) (Bacillus anthracis, UniProt A0A6L8PKK6). In kind it is biochemical. The note with it: 25° C., pH 8.0.
In data set [5] the target is GR from B. anthracis isozyme 1 (RacE1) (Bacillus anthracis, UniProt A0A6L8PVU3). As to the kind of experiment: biochemical.
In data set [6] the target is T3, glutamate racemase isozyme 2 from Bacillus anthracis (RacE2). As to the kind of experiment: biochemical. In kind it is biochemical.
Another data set deals with GR from F. tularensis (Francisella tularensis, UniProt Q5NFN6). As to the kind of experiment: biochemical.
The target of data set [7] is T2, glutamate racemase (GR) from B. subtilis. As to the kind of experiment: biochemical.
Where [8] appears, read: Ki converted into binding energy divided by number of non-hydrogen atoms.
[9] abbreviates: from log(Ki) and calculated logP (MarvinSketch).
Setting [10] is: Staphylococcus aureus, ATCC12600.

In brackets after ≈: the same amount, converted by molar mass. Several values for one entry are separate records, joined by “and”; a condition that tells them apart may be missing. Identical values can stand only once. Like-named read-outs stand apart in the source and are kept apart here.

Usually IC50 stands for the midpoint of a concentration-inhibition curve. As usually defined, the Ki is a dissociation constant, usually derived from enzyme kinetics or from competition with a known ligand. For orientation: EC50 means the concentration at which the effect is half-maximal. Broadly, the MIC50 is an inhibitory concentration at the 50% level, which refers to growth in some studies and to a panel of isolates in others. A high value points to lower susceptibility.

T2 sequence (P94556 whole entry): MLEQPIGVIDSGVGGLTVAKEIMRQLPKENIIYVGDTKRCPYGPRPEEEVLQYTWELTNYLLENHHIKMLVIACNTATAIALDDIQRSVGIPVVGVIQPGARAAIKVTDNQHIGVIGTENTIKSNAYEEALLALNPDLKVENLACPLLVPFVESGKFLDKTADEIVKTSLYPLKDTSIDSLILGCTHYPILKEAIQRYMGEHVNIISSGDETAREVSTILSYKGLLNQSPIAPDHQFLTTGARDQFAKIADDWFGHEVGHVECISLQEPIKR
T3 sequence (A0A6L8PKK6 1-269): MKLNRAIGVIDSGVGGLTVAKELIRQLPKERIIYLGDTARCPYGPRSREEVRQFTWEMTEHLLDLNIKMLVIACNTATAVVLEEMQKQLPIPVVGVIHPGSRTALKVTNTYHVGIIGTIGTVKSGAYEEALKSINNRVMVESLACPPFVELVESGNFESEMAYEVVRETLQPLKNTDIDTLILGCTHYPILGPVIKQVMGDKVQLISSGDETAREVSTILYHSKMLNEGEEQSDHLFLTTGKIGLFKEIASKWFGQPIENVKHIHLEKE
GR from F. tularensis, sequence (Q5NFN6 1-265): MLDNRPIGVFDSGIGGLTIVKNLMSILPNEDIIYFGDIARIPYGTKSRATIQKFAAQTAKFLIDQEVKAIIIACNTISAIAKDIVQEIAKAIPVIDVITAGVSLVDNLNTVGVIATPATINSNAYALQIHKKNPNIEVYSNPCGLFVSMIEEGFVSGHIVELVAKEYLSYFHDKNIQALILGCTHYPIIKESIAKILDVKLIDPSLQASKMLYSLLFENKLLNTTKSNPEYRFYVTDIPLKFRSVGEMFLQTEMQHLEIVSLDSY
GR from B. anthracis isozyme 1 (RacE1), sequence (A0A6L8PVU3 1-276): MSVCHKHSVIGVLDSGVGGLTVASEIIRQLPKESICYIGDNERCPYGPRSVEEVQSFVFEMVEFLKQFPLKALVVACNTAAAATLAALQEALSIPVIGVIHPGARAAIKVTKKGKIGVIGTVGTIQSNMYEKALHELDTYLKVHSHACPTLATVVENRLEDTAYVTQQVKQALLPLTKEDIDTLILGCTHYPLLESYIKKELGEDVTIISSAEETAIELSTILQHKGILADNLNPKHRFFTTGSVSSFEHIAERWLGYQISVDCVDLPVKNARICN

With “7-fluoro-2-sulfo-1H-benzo[d]imidazole-5-carboxylic acid [Compound 4] [listing 1 of 2 here]”, in data set [1], the “potency against B. anthracis RacE2 relative to B. subtilis GR” value was “equal potency”. Further, the IC50 in data set [2] (best-fit value, Table 5) was 102 µM; in data set [2] (dose-response inhibition model, FIG. 16), around 100 µM. In addition, in [2] (dose-response fit), the “Hill Slope (best-fit value)” value is reported as −6.498. Further, in [2] (log of compound concentration in mM), the “LogIC50 (best-fit value)” value is −0.9935. The “LE (ligand efficiency)” value in data set [3] (setting [8]) is recorded as 0.45 kcal mol^−1 atom^−1. In addition, in data set [3], the inhibition constant (Ki) amounted to 2.5 µM. The same compound registered an EC50 for lysis in the data set with B. subtilis of 520 µg/mL. Also, the increase in luminescence is given as 400% in the data set with B. subtilis (low-millimolar range) and around 40% in the data set on S. aureus (S. aureus, millimolar inhibitor concentration range). Further, the EC50 with B. subtilis (read-out: EC50 value of cell lysis, FIG. 17, within the same range as the MIC50) is around 2000 µM. Also, the MIC50 was 260 ± 110 µg/mL with B. subtilis DB104 (B. subtilis); 1,788 μM and 460 μg/mL in the data set with B. subtilis DB104 (B. subtilis, FIG. 15); 1600 ± 200 µg/mL in the data set with E. coli Acella (E. coli); 1000 ± 250 µg/mL against S. aureus ATCC 12600 (S. aureus). Also, in the data set with B. subtilis DB104 (B. subtilis), the “MIC50 value for growth inhibition” value was 260 µg/mL. The “MIC50 value for bacterial growth inhibition” value with B. subtilis DB104 (B. subtilis, FIG. 17) was found to be 2000 µM.

Turning to “7-fluoro-2-sulfo-1H-benzo[d]imidazole-5-carboxylic acid [Compound 4] [listing 2 of 2 here]”, in data set [4], the inhibition constant (Ki) was determined as 5.4 ± 2.5 µM.

On to `O=S(=O)(O)c1nc2ccccc2[nH]1` [Compound 2, 1H-benzimidazole-2-sulfonic acid], for which the IC50 amounted to 120 ± 5 µM in data set [5], 40 ± 5 µM in data set [6], 110 ± 12 µM at GR from F. tularensis and 250 ± 20 µM in [7]. Also, the “LE (ligand efficiency)” value in data set [3] was 0.53 kcal mol^−1 atom^−1. In addition, in data set [3], the “LiPE (lipophilic efficiency)” value turned out to be 5.3. The inhibitory constant (Ki) in data set [3] (GR from B. subtilis) came out at 9 µM. The MIC50 in the data set on B. subtilis DB104 (Bacillus subtilis, DB104) amounted to 720 ± 60 µg/mL (≈ 3.63 mM).

As to `Cc1ccc2[nH]c(S(=O)(=O)O)nc2c1` [Compound 15], the “LE (ligand efficiency)” value in [3] (setting [8]) came out at 0.46 kcal mol^−1 atom^−1. The “LiPE (lipophilic efficiency)” value in [3] (setting [9]) is 4.4. This compound registered a Ki in data set [7] of 21 ± 5 µM. For the same compound, the MIC50 with B. subtilis DB104 (Bacillus subtilis, DB104) was above 3000 µg/mL.

Take `CCCCNS(=O)(=O)c1ccc2[nH]c(S(=O)(=O)O)nc2c1` [Compound 18, 5-(n-butylsulfamoyl)-1H-benzo[d]imidazole-2-sulfonic acid]: the “LE (ligand efficiency)” value in data set [3] (setting [8]) stood at 0.30 kcal mol^−1 atom^−1. Also, the “LiPE (lipophilic efficiency)” value in data set [3] (setting [9]) is listed as 5.0. Moreover, the Ki in [7] was determined as 12 ± 3.6 µM. Moreover, the MIC50 with B. subtilis DB104 (Bacillus subtilis, DB104) is 360 ± 20 µg/mL (≈ 1.08 mM); with E. coli Acella (Escherichia coli) it was above 3000 µg/mL; with S. aureus ATCC 12600 (setting [10]), above 3000 µg/mL. The growth inhibition result with E. coli Acella (E. coli) and in the data set on S. aureus ATCC 12600 (S. aureus) was “no significant growth inhibition” each time.

Consider `O=C(c1ccccc1)c1ccc2[nH]c(S(=O)(=O)O)nc2c1` [Compound 24], for which, in data set [3], the “loss in binding affinity versus parent compound” value is reported as around 100 fold. The “LE (ligand efficiency)” value in data set [3] (setting [8]) is listed as 0.20 kcal mol^−1 atom^−1. Besides, in data set [3] (setting [9]), the “LiPE (lipophilic efficiency)” value was 1.9. Affinity in [7] was put at a Ki of 830 ± 75 µM. The same compound returned an MIC50 against B. subtilis DB104 (Bacillus subtilis, DB104) of 140 ± 20 µg/mL (≈ 0.463 mM).

In the case of `O=S(=O)(O)c1nc2ccc(Cl)cc2[nH]1` [Compound 26], the “LE (ligand efficiency)” value in data set [3] (setting [8]) is recorded as 0.48 kcal mol^−1 atom^−1. Besides, the “LiPE (lipophilic efficiency)” value in data set [3] (setting [9]) is recorded as 4.5. The compound further returned a Ki in data set [7] of 13 ± 2.4 µM. The compound further yielded an MIC50 against B. subtilis DB104 (Bacillus subtilis, DB104) above 3000 µg/mL.

As for `O=S(=O)(O)c1nc2cc(S(=O)(=O)N3CCOCC3)ccc2[nH]1` [Compound 29, 5-(morpholinosulfonyl)-1H-benzo[d]imidazole-2-sulfonic acid], the “LE (ligand efficiency)” value in [3] (setting [8]) is 0.34 kcal mol^−1 atom^−1. Further, the “LiPE (lipophilic efficiency)” value in data set [3] (setting [9]) is listed as 6.6. Affinity in data set [7] was put at a Ki of 6.4 µM. For the same compound, the MIC50 in the data set with B. subtilis DB104 (Bacillus subtilis, DB104) was 320 ± 10 µg/mL (≈ 0.921 mM); with E. coli Acella (Escherichia coli), above 3000 µg/mL; against S. aureus ATCC 12600 (setting [10]), above 3000 µg/mL. In addition, the growth inhibition result in the data set with E. coli Acella (E. coli) and in the data set on S. aureus ATCC 12600 (S. aureus) was “no significant growth inhibition” each time.

Turning to `CC1(C)S[C@@H]2[C@H](NC(=O)[C@H](N)c3ccccc3)C(=O)N2[C@H]1C(=O)O` [ampicillin, reference compound], the “luminescence response (cell lysis)” value with S. aureus (S. aureus exposed 24 h, control antibiotics, FIG. 23A) is “dose-dependent increase in luminescence”.
